One assay relates to Adenylate kinase. The experiment in a line: AK activity assay kit. The class given is biochemical.
Assay [1] concerns human recombinant α1β1γ1 AMPK γ1 mutants (R70G, R152G). Kind of assay: In vitro kinase assay with mutant AMPK pulled down from HEK-293T cells. The format is biochemical. The following applies: 30 nM Activator-3; γ1 R70G, R152G mutants. How it is done: (§1) A high binding Enzyme Immuno Assay (EIA) 96-well plate (Sigma: Cat# CLS3590) was coated with Acetyl CoA Carboxylase 2 (ACC: 175–271 amino acids) peptide, a direct substrate for AMPK, 100 ng per well (1:1000 ratio, Cat# 12–491, Upstate biotechnology) and incubated overnight at 25 °C. Reaction mixture was incubated at 30 °C for 2 h and reaction was stopped by washing the plate with 0.05% Tween 20 followed by incubation with pACC primary antibody and rabbit secondary antibody as described in cell based ELISA section. Assay buffer is composed of 10 mM DTT, 100 mM magnesium acetate, 50 μM ATP and 10 mM HEPES.
R70 and R152 residues in AMPK γ1 subunit (pDONR223-PRKAG1: purchased from addgene, cat# plasmid#23718) are mutated to glycine using overlapping extension PCR. Subsequently, the mutants were transferred into a triple tagged destination vector (Streptavidin, Flag and Biotin; SFB-pDEST) by using gateway cloning technology. The mutant DNA was transfected into HEK-293T cells using PEI following standard procedures. After 4 h of transfection, media was changed to DMEM containing 10% FBS. Cells were lysed in TENNS lysis buffer (20 mM Tris pH:8.0, 100 mM NaCl, 1 mM EDTA, 10 mM Na2H2P2O7, 10 mM NaF, 10 mM Na3VO4, 0.5% NP40) and subjected to pull down using streptavidin beads followed by biotin elution. To protect the protein from dephosphorylation, cells were treated with 500 μM AICAR prior to lysis. This purified protein was estimated by using nanodrop and taken for in vitro kinase assay to check whether Activator-3 is binding to the mutant AMPK or not, and the activity of the mutant protein was assessed by comparing with the wild type protein activity.

Assay [2] concerns the target human recombinant AMPK α2β1γ1 (Homo sapiens, UniProt P54619). Kind of assay: In vitro AMP kinase assay (pACC ELISA), α2β1γ1. The class given is biochemical. Also on record: purchased SignalChem P47-10H-05/P48-10H-05 (for all four isozymes together); host or cells: baculovirus expression.
Source text: (§2) Having observed the effect of Activator-3 on the activation of AMPK in cell based assays, we next examined whether Activator-3 could activate AMPK directly or not. […] The activity of recombinant human AMPK (α1β1γ1, α2β1γ1, α2β2γ2 and α2β2γ3) in the presence of vehicle was considered as 100%. The EC50 of Activator-3 for the activation of α1β1γ1, α2β1γ1 and α2β2γ2 isozymes were similar. However, the activity of Activator-3 against α2β2γ3 was marginally higher (Fig. 1C).
as §1
Background: An ELISA detects its analyte on a solid surface through an enzyme-linked reagent.

The next assay deals with HSD fed diabetic rats. Kind of assay: HSD fed insulin resistant diabetic rats. The format is in vivo, rat. How it is done: Approximately 100 mg of soleus muscle tissue was taken and lysed with RIPA lysis buffer. Lysates were resolved on 12% SDS–polyacrylamide gels and were transferred to PVDF membrane (Millipore, USA). Membrane was blocked with 5% nonfat milk in TRIS buffered saline (TBS; 10 mM TRIS (pH 8.0), 150 mM NaCl) for 1 hour and probed with primary antibody of interest: phospho-AMPK (Thr^172) (1:1000; Cell Signaling Technology, USA), phospho-ACC (Ser^79) (1:1000; Cell Signaling Technology, USA), total AMPK (1:1000; Cell Signaling Technology, USA), total ACC (1:1000; Cell Signaling Technology, USA), and total Actin (1:1000; Santa Cruz Biotechnology, USA). Subsequently, membranes were incubated with corresponding HRP-conjugated secondary antibodies. The chemiluminescence signals were captured on photographic films using an enhanced chemiluminescence (Thermo Scientific, USA).The loading controls of phospho-ACC and phospho-AMPK in Fig. 6J were probed in parallel gels.
Twelve weeks old healthy colony bred male Wistar rats, weighing about 150–200 grams were purchased from the animal research facility (Cadila Pharma limited, Ahmedabad, India) and maintained at the animal house of Institute of pharmacy (Nirma University, India). All the methods were carried out in accordance with the approved guidelines. Experimental protocol involving animals was reviewed and approved by the Animal Ethical Committee of Institute of Science, Nirma University, Ahmedabad, India (Protocol No. IS/FAC/14-1/021) Animals were maintained in polypropylene cages in a standard photoperiod (12 h light:12 h dark cycle) and temperature (27 ± 1 °C) controlled room with the provision of laboratory food (Gold Mohur feeds Ltd, New Delhi, India) and water ad libitum. Animals were segregated into three different experimental groups with 6 animals in each as follows: non-diabetic group with standard chow diet (control group, CD), Diabetic group with high sucrose diet (65%, treated group, HSD)[84] and HSD with AMPK Activator-3 treated group (10 mg/kg body weight of animal). Post HSD induction animals were treated with AMPK Activator-3 for 30 days.
Animals were subjected to an OGTT at a beginning of the treatment (0 day) and a day before the end of the experiment (30 day). OGTT was performed after 12 h of the fasting. Briefly, after fasting, animals were given a glucose load (2 g/kg) orally. Blood samples were collected from the animal tail vein at 0 min (before glucose administration) and at 15, 30, 60, 90 and 120 min after glucose administration. Glucose concentration was determined using a CareSensN blood glucose monitor and glucose strips. Area under the curve for glucose (AUCglucose) was calculated using the trapezoidal rule.
Approximately, 1 ml of the blood samples was collected from the retro-orbital plexus of the animals under the mild anesthesia using diethyl ether. Blood was then transferred to the microfuge tubes for separation of plasma and serum at 0 day (start of the treatment) and the last day of the experiment (30 day). Total cholesterol and triglycerides levels were estimated from plasma using a diagnostic kit from Accucare India Ltd according to the protocol mentioned by the manufacturer.
Plasma FFA was estimated using chloroform and triethyalanomine extraction method by measuring the absorbance at 440 nm. The stearic acid was used as standard fatty acid and detailed protocol was performed as mentioned[85],[86]. […]

The target in assay [3] is T1, recombinant human AMPK α2β2γ3 (Homo sapiens, UniProt Q9UGI9).
T1 construct: purchased SignalChem; host or cells: baculovirus expression
T1 sequence (Q9UGI9 whole entry): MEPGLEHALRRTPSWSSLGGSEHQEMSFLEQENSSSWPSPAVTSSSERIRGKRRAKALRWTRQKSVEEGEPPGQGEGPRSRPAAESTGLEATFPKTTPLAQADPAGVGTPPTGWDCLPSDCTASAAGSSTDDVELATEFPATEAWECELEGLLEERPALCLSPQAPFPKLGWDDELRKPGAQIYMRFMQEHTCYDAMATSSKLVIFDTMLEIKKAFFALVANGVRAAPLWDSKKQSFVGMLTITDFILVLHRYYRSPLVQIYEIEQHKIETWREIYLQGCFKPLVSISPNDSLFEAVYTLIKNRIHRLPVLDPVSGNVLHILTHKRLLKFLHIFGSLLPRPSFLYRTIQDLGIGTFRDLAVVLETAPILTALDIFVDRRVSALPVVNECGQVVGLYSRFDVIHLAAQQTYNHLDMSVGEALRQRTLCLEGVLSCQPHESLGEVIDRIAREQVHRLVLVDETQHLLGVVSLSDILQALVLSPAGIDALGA
T1 sequence (P54646 whole entry partner): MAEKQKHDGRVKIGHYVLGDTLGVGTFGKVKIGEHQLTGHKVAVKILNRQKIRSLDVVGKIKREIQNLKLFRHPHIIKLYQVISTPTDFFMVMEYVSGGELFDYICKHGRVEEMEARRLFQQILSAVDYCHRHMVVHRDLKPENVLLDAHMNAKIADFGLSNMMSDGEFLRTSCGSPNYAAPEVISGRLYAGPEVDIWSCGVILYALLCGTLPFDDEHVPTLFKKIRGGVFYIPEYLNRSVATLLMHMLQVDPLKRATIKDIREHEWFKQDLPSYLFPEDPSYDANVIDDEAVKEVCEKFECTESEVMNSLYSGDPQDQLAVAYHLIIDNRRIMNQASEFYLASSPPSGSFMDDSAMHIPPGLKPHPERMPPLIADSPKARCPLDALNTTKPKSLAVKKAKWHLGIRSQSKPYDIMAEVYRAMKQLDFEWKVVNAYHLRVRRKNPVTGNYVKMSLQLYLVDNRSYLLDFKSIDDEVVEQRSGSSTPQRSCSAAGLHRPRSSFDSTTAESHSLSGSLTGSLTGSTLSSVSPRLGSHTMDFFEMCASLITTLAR
T1 sequence (O43741 whole entry partner): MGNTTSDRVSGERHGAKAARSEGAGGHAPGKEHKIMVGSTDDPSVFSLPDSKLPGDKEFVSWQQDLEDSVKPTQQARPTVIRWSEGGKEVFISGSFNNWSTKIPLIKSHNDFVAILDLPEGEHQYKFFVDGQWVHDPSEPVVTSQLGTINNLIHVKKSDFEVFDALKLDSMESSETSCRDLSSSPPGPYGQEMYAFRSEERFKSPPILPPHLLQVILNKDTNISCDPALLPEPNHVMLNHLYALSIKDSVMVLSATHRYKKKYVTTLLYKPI
The experiment in a line: In vitro AMP kinase assay (pACC ELISA), α2β2γ3. The class given is biochemical.
Source text: as §2, §1

The target in assay [4] is T2, recombinant human AMPK α2β2γ2 (Homo sapiens, UniProt Q9UGJ0).
T2 construct: purchased SignalChem; host or cells: baculovirus expression
T2 sequence (Q9UGJ0 whole entry): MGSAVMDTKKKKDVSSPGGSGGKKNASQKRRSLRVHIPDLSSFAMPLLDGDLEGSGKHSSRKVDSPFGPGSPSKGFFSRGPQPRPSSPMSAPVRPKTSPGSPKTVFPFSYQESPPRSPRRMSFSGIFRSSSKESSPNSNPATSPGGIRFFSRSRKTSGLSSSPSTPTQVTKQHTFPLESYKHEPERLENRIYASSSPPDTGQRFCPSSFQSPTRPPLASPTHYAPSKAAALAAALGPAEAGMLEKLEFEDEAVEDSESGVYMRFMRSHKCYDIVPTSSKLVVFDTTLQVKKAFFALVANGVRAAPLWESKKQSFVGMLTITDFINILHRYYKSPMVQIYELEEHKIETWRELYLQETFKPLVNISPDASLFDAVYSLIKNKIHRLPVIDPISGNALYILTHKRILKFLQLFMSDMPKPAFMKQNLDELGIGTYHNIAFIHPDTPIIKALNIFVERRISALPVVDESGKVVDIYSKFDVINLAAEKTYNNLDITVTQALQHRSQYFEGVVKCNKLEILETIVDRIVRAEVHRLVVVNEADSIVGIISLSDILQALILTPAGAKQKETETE
T2 sequence (P54646 whole entry partner): as the sequence (P54646 whole entry partner) above
T2 sequence (O43741 whole entry partner): as the sequence (O43741 whole entry partner) above
Kind of assay: In vitro AMP kinase assay (pACC ELISA), α2β2γ2. The format is biochemical.
Source text: as §2, §1

[5] abbreviates: Activator-3 1 nM to 10 μM with 100 µM AMP.
[6] abbreviates: 10 mg/kg oral once a day, 30th day.

Molecules are shown by their SMILES. Where only a bound is given, the exact number is not on record here.

Consider one compound from article PMC6018554, “2-[2-(4-(trifluoromethyl)phenylamino)thiazol-4-yl]acetic acid (Activator-3) is a potent activator of AMPK” (Scientific Reports, 2018).

human recombinant AMPK α2β1γ1, sequence (P54619 whole entry): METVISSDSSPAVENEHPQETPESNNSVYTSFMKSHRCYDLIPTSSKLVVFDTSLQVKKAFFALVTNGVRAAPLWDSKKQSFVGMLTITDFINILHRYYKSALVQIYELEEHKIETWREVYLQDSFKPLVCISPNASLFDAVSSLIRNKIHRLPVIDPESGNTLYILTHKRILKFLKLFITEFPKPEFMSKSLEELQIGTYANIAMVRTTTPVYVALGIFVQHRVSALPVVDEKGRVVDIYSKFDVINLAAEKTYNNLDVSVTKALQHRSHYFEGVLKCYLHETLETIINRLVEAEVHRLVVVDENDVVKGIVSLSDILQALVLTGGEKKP
human recombinant AMPK α2β1γ1, sequence (P54646 whole entry partner): as the sequence (P54646 whole entry partner) above
human recombinant AMPK α2β1γ1, sequence (Q9Y478 whole entry partner): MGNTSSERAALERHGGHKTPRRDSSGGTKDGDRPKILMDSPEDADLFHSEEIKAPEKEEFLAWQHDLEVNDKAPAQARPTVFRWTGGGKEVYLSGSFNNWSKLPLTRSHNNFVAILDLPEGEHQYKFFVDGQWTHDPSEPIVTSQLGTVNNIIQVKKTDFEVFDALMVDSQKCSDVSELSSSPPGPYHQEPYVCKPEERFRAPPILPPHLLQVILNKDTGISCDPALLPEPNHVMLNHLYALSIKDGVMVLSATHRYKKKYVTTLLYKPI

As for `O=C(O)Cc1csc(Nc2ccc(C(F)(F)F)cc2)n1` [Activator-3, 2-[2-(4-(trifluoromethyl)phenylamino)thiazol-4-yl]acetic acid], the “effect on Adenylate kinase activity” value was “minimally affected” in the assay on Adenylate kinase (1 µM) and “unaffected” in the assay on Adenylate kinase (≤10 µM). In assay [1], the “AMPK activity of mutant proteins vs wild type” value is recorded as “significant reduction”. Further, the “reduction of AMPK activity stimulated by 100 µM AMP” value in assay [2] (setting [5]) is on record as ~ 50%. Also, the EC50 was about 23 nM in assay [2] (read-out: EC50 allosteric activation hα2β1γ1), about 4 nM in assay [3] (read-out: EC50 allosteric activation hα2β2γ3) and about 26 nM in assay [4] (read-out: EC50 allosteric activation hα2β2γ2). In addition, the “glucose concentration in OGTT vs HSD group” value in the assay with HSD fed diabetic rats (setting [6]) is recorded as “significantly reduced”. The “plasma free fatty acid vs HSD group” value in the assay with HSD fed diabetic rats (setting [6]) is “significantly lower”. Also, the “plasma total cholesterol vs HSD group” value in the assay on HSD fed diabetic rats (setting [6]) was “significantly lower”. For the same compound, in the assay with HSD fed diabetic rats (10 mg/kg oral once a day, 30 days, p < 0.05), the “HSD induced body weight gain” value is reported as “decreased”. In addition, the “phosphorylation of AMPK and ACC in soleus muscle” value in the assay with HSD fed diabetic rats (10 mg/kg/day for 30 days, western blot) is given as “restored”. For the same compound, in assay [3] (co-treatment Activator-3 and 100 µM AMP), the “increase of AMPK activity over 100 µM AMP alone” value is recorded as over 30%. Besides, in assay [4] (setting [5]), the “change of AMPK activity stimulated by 100 µM AMP” value is reported as “minimal decrease”.

In general, EC50 refers to the concentration at which the effect is half-maximal.
